According to publication PMC8778818, “Synthesis, Structural Characterization and Anticancer Activity of New 5-Trifluoromethyl-2-thioxo-thiazolo[4,5-d]pyrimidine Derivatives” (Pharmaceuticals, 2022):
Entries after “also recorded” stand apart in the source; their conditions may differ.

How the values were obtained:
[1] = test system: M14; settings: M14, 10^−5 M one dose
[2] = test system: IGROV1; experiment: NCI-60 screen, Ovarian Cancer IGROV1; type: cell-based; settings: IGROV1, 10^−5 M one dose
[3] = test system: 786-0; experiment: NCI-60 screen, Renal Cancer 786-0; type: cell-based; settings: 786-0, 10^−5 M one dose
[4] = test system: NCI-H460; experiment: NCI-60 screen, Non-Small Cell Lung Cancer NCI-H460; type: cell-based, human; settings: NCI-H460, 10^−5 M one dose
[5] = test system: 60 human cancer cell lines; experiment: NCI-60 anticancer screen, full panel; type: cell-based; settings: 10^−5 M one dose; for Mean Growth %: mean over the panel
[6] = test system: HCT-116; experiment: NCI-60 screen, Colon Cancer HCT-116; type: cell-based, human; settings: HCT-116, 10^−5 M one dose
[7] = test system: MDA-MB-231/ATCC; experiment: NCI-60 screen, Breast Cancer MDA-MB-231/ATCC; type: cell-based; settings: MDA-MB-231/ATCC, 10^−5 M one dose
[8] = test system: HT29; experiment: NCI-60 screen, Colon Cancer HT29; type: cell-based, human; settings: HT29, 10^−5 M one dose
[9] = test system: U251; experiment: NCI-60 screen, CNS Cancer U251; type: cell-based, human; settings: U251, 10^−5 M one dose
[10] = test system: SN12C; experiment: NCI-60 screen, Renal Cancer SN12C; type: cell-based; settings: 10^−5 M one dose
[11] = test system: T-47D; experiment: NCI-60 screen, Breast Cancer T-47D; type: cell-based; settings: T-47D, 10^−5 M one dose
[12] = test system: UO-31; experiment: NCI-60 screen, Renal Cancer UO-31; type: cell-based; settings: UO-31, 10^−5 M one dose
[13] = test system: SF-268; experiment: NCI-60 screen, CNS Cancer SF-268; type: cell-based, human; settings: SF-268, 10^−5 M one dose
[14] = test system: SK-MEL-2; experiment: NCI-60 screen, Melanoma SK-MEL-2; type: cell-based, human; settings: SK-MEL-2, 10^−5 M one dose
[15] = test system: SR; experiment: NCI-60 screen, Leukemia SR; type: cell-based, human; settings: 10^−5 M one dose
[16] = test system: SNB-19; experiment: NCI-60 screen, CNS Cancer SNB-19; type: cell-based, human; settings: SNB-19, 10^−5 M one dose
[17] = test system: A498; experiment: NCI-60 screen, Renal Cancer A498; type: cell-based, human; settings: A498, 10^−5 M one dose
[18] = test system: OVCAR-8; experiment: NCI-60 screen, Ovarian Cancer OVCAR-8; type: cell-based, human; settings: OVCAR-8, 10^−5 M one dose
[19] = test system: OVCAR-4; experiment: NCI-60 screen, Ovarian Cancer OVCAR-4; type: cell-based, human; settings: OVCAR-4, 10^−5 M one dose
[20] = test system: NCI-H226; experiment: NCI-60 screen, Non-Small Cell Lung Cancer NCI-H226; type: cell-based, human; settings: NCI-H226, 10^−5 M one dose
[21] = test system: NCI-H522; experiment: NCI-60 screen, Non-Small Cell Lung Cancer NCI-H522; type: cell-based, human; settings: NCI-H522, 10^−5 M one dose
[22] = test system: RPMI-8226; experiment: NCI-60 screen, Leukemia RPMI-8226; type: cell-based, human; settings: RPMI-8226, 10^−5 M one dose
[23] = test system: CCRF-CEM; experiment: NCI-60 screen, Leukemia CCRF-CEM; type: cell-based, human; settings: 10^−5 M one dose
[24] = test system: SK-MEL-28; experiment: NCI-60 screen, Melanoma SK-MEL-28; type: cell-based; settings: SK-MEL-28, 10^−5 M one dose
[25] = test system: TK-10; experiment: NCI-60 screen, Renal Cancer TK-10; type: cell-based, human; settings: TK-10, 10^−5 M one dose
[26] = test system: ACHN; experiment: NCI-60 screen, Renal Cancer ACHN; type: cell-based, human; settings: 10^−5 M one dose
[27] = test system: SW620; experiment: NCI-60 screen, Colon Cancer SW620; type: cell-based, human; settings: SW620, 10^−5 M one dose
[28] = test system: HOP-62; experiment: NCI-60 screen, Non-Small Cell Lung Cancer HOP-62; type: cell-based; settings: HOP-62, 10^−5 M one dose

Row | SMILES | Growth of Cells (%) [1] [%] | Growth of Cells (%) [2] [%] | Growth of Cells (%) [3] [%] | Growth of Cells (%) [4] [%] | activity in the one-dose assay (in words) [5] | Mean Growth % [5] [%] | Growth of Cells (%) [6] [%] | Growth of Cells (%) [7] [%] | Growth of Cells (%) [8] [%] | Growth of Cells (%) [10] [%] | Growth of Cells (%) [11] [%] | Growth of Cells (%) [12] [%] | Growth of Cells (%) [13] [%] | Growth of Cells (%) [14] [%] | Growth of Cells (%) [15] [%] | Growth of Cells (%) [16] [%] | Growth of Cells (%) [18] [%] | Growth of Cells (%) [19] [%] | Growth of Cells (%) [20] [%] | Growth of Cells (%) [21] [%] | also measured
1 | O=c1[nH]c(C(F)(F)F)nc2c1sc(=S)n2-c1ccccc1 [Compound 2b, 3-phenyl-2-thioxo-5-(trifluoromethyl)-2,3-dihydro[1, 3]thiazolo[4,5-d]pyrimidin-7(6H)-one] | 112.91 | −5.14 | 104.97 | 123.50 | insufficient activity | 103.88 | 102.27 | 107.13 | 100.96 | 106.95 | 108.41 | 91.22 | 101.77 | 97.36 | 105.93 | 102.20 | 103.45 | 117.19 | 103.60 | 90.35 | Growth of Cells (%) [9]: 101.63%; Growth of Cells (%) [17]: 90.58%; Growth of Cells (%) [22]: 108.14%; Growth of Cells (%) [23]: 96.48%; Growth of Cells (%) [24]: 102.86%; Growth of Cells (%) [25]: 130.06%; Growth of Cells (%) [26]: 110.42%; Growth of Cells (%) [27]: 95.09%
2 | CCNc1nc(C(F)(F)F)nc2c1sc(=S)n2-c1ccccc1 [Compound 4b, 7-(ethylamino)-3-phenyl-5-(trifluoromethyl)[1, 3]thiazolo[4,5-d]pyrimidine-2(3H)-thione] | 107.61 | 101.57 | 101.39 | 100.34 | insufficient activity; also recorded: inactive | 96.94 | 94.34 | 85.06 | 88.76 | 100.30 | 73.92 | 103.75 | 104.72 | 88.08 | 83.46 | 106.58 | 96.11 | 98.24 | 88.51 | 70.40 | Growth of Cells (%) [9]: 93.27%; Growth of Cells (%) [24]: 112.46%; Growth of Cells (%) [25]: 88.79%; Growth of Cells (%) [28]: 86.06%; Growth of Cells (%) [26]: 93.13%; Growth of Cells (%) [27]: 106.24%
3 | Fc1ccc(CNc2nc(C(F)(F)F)nc3c2sc(=S)n3-c2ccccc2)cc1 [Compound 4c] | 112.06 | 109.98 | 99.38 | 109.73 | insufficient activity; also recorded: inactive | 105.13 | 111.01 | 119.48 | 103.27 | 101.41 | 85.37 | 82.87 | 109.32 | 95.77 | 94.72 | 106.48 | 98.68 | 125.04 | 112.41 | 90.73 | Growth of Cells (%) [17]: 121.43%; Growth of Cells (%) [22]: 104.96%; Growth of Cells (%) [23]: 102.97%; Growth of Cells (%) [24]: 110.02%; Growth of Cells (%) [25]: 130.70%; Growth of Cells (%) [28]: 92.88%; Growth of Cells (%) [26]: 99.14%; Growth of Cells (%) [27]: 114.74%
